# Test results reported in US5298614A, “Size limited double stranded poly I poly(cytidylate/4-thiouridylate)” (Nippon Shinyaku Co. Ltd., priority 1986, dated 1994).
# Marks after values point to notes of the source that are not given here.
# Columns and labels:
# [1] = tested on: interleukin 1 (cohesive cells from human peripheral blood); test: Inducing activity of interleukin 1, 3H-thymidine in-take into PHA-stimulated mice thymus cells; type: cell-based; details: samples 100α/ml; interleukin 1 1.25 units/ml; saline control 3370
# Procedure: Mononuclear particles were separated from normal human heparin-added peripheral blood by specific gravity centrifugation method using Ficoll-Hypaque (Pharmacia, Ficollpaque, trademark), the numbers were adjusted to 5×10^6 /ml in a 10% FCS-added RPMI medium, placed in a plastic dish, incubated at 37° C. for one hour, and the cohesive cells were used as an interleukin 1-producing source.
# The sample to be tested was added to the 5×10^5 /ml of single particle, incubated at 37° C. for 24 hours, and the interleukin 1 activity in the supernatant liquid was determined by measuring a ^3 H-thymidine in-take method into a PHA-stimulated mice thymus cells using a proliferation ability of the thymus cells as a target. The control was physiological saline solution.
# HeLa S3 = test: Proliferation inhibiting action in nude mice bearing human tumor cells; type: in vivo, human tumor cells in nude mice (BALB/c); details: test sample 100 μg/mouse i.v., 5-FU 25 mg/kg i.p., twice a week for four weeks
# Procedure: (§1) Each 2.5×10^6 of cell strain HeLa S3 derived from human uterus neck and cell strain Hep-2 derived from throat cancer cells were transplanted under the skin of the nude abdomen of male nude mice 5 weeks old derived from BALB/c and, on the 7th to 10th day after the transplantation, living cohesion of tumor was confirmed. Then 100 μg/mouse of test sample (intravenously) and 25 mg/kg of 5-FU (intraperitoneally) were administered twice a week for four weeks. Tumor was extracted on the fourth week after the admininstration and the weight were measured.
# (§2) The test samples used were the same as that in the above (1).
# Hep-2 = test: as above; type: in vivo, human tumor cells in nude mice (BALB/c); details: test sample 100 μg/mouse i.v., 5-FU 25 mg/kg i.p., twice a week for four weeks
# Procedure: as §1, §2
# [2] = 50% melting temperature (Tm) and hyperchromicity, UV absorbance at 260 nm; type: physicochemical; details: neutral condition, aqueous buffer solution containing 0.1M sodium ion
# Procedure: If the stabilization of the double stranded complex formation in nucleic acid polymer is shown with reference to the 50% melting temperature (Tm value), poly I:poly C has a 59.0° C. under a neutral condition in aqueous buffer solution containing 0.1M sodium ion while the SH-substituted nucleic acid derivative containing 4-thiouridine (n=20) and the S-substituted nucleic acid derivative (n=20) have a 59.5° C. and 59.3° C., respectively.
# Among the nucleic acid derivatives obtained by the above example, those with 50 to 2,000 residue numbers of molecular size distribution were taken and their fusing curves were measured.
# Sample I or II (0.7 OD/ml) in 10 mM Tris buffer (pH 7.5) containing 0.1M sodium chloride was warmed, at the rising rate of 2° C./4 minutes, from 20° C. to 90° C., the ultraviolet absorbancy at each temperature was measured at the wavelength of 260 nm, and an increase of ultraviolet absorbancy by a hyperchromicity was represented by a relative ratio giving the state at 20° C. as a base. A Beckmann-DU-8B spectrophotometer was used for the measurement. Melting of the nucleic acid derivatives was gradually observed during 35° C. to 55° C. and, at around 59° C., a sudden fusion curve was obtained. […]
# venom phosphodiesterase = test: Resistance against hydrolysis, time until hydrolysis arrives at 50%; type: in vitro ADME; details: venom phosphodiesterase enzymatic reaction
# Procedure: Then the resistance against hydrolysis by RNase was compared in terms of the time ratio until the hydrolysis arrives at 50%. Thus, under conditions such as venom phosphodiesterase enzymatic reaction, poly I:poly C was 50 minutes while those of nucleic acid derivatives containing 4-thiouridine (SH group) and its S--S bond (n=20) are 60 minutes and, by contrast, those of nucleic acid derivatives (n=20) containing uridine (OH group) were as short as 20 minutes.
# Pyrogen test to rabbits = type: in vivo; details: 0.2 microgram/kg i.v., 4 hours after injection
# Procedure: Injection of poly I:poly C in vivo has been known to be pyrogenic. […] On the contrary, the nucleic acid derivatives of the present invention (both SH and S--S substances in the above cytotoxic experiment) show only 0.25° C. rise in body temperature on average and the result of the pyrogenic test was negative. In those experiments, three rabbits per group were used and a solution of the sample (0.2 microgram/kg) in 10 ml of physiological saline solution was intravenously injected beneath the ear of the rabbits and the body temperature at 4 hours after the injection was observed.
compound,measurement,setting,value
Interleukin 1,In-Take Amount,[1],12517 DPM (× 10^4)
"O=c1[nH]cc(F)c(=O)[nH]1 [5-FU, 5-fluorouracil]",Inhibition Rate (%),HeLa S3,47%
same,Weight (g) ± S.E. of tumor,HeLa S3; control 3.85 ± 0.23,2.06 ± 0.35 g
same,Inhibition Rate (%),Hep-2,30%
same,Weight (g) ± S.E. of tumor,Hep-2; control 0.88 ± 0.07,0.56 ± 0.12 g
polyinosinic acid-polycitydylic acid [poly I:poly C],50% melting temperature (Tm value),[2],59.0 °C
same,time until the hydrolysis arrives at 50%,venom phosphodiesterase,50 min
same,"body temperature rise, average",Pyrogen test to rabbits,1.45 °C
